Data reported in PubChem BioAssay (NCI).
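Tested at 5 concentrations; 48 h exposure; 96-well plates; endpoints linearly interpolated, else capped at highest concentration. TGI denotes the concentration required for complete inhibition of growth.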

Tests used:
Assay in all cases: NCI tumour cell line growth inhibition, 48 h
DMS 273 small cell lung = tested on: DMS 273 small cell lung
M19-MEL melanoma = tested on: M19-MEL melanoma
RXF-631 renal = tested on: RXF-631 renal
HOP-18 NSCLC = tested on: HOP-18 NSCLC
SNB-78 CNS = tested on: SNB-78 CNS
P388 leukemia = tested on: P388 leukemia
SN12K1 renal = tested on: SN12K1 renal

Row | SMILES | TGI (DMS 273 small cell lung) [µM] | TGI (M19-MEL melanoma) [µM] | TGI (RXF-631 renal) [µM] | TGI (HOP-18 NSCLC) [µM] | TGI (SNB-78 CNS) [µM] | TGI (P388 leukemia) [µM] | TGI (SN12K1 renal) [µM]
1 | CCN(CC)CCNc1ccc2nnn3c4ccccc4c(=O)c1c23 | 14.3 | 17.2 | 13.7 |  |  |  | 
2 | O=c1nc2sc3ccc4ccccc4c3n2[nH]c1=O | > 100 |  |  | > 100 | > 100 |  | 
3 | CC(=O)N/C(=C\c1ccc(/C=C(\NC(C)=O)C2=NC3C(=O)c4ccccc4C(=O)C3N2)cc1)C1=NC2C(=O)c3ccccc3C(=O)C2N1 (centres undefined) | > 100 | > 100 | > 100 | > 100 | > 100 |  | 
4 | O=C(O)c1nccnc1C(=O)O | > 100 | > 100 | > 100 |  |  |  | 
5 | CCCCCCCCCCCCCCCC(=O)OC1C(O)C(CO)OC(OC)C1NC(=O)N(CCCl)N=O (centres undefined) | 29.4 | 32.3 | 32 | 31.3 | 40.2 |  | 
6 | C=CCc1cccc(/C=N\N=C(/N)NO)c1O | 16.5 |  |  | > 100 | > 88.1 | 3.19 | 11.6
7 | Cc1c2c(ccc3ccccc32)c[n+]2ccccc12 | 28.5 |  |  |  |  |  | 
8 | [O-][n+]1c(-c2ccccc2)c2nc3ccccc3nc2c2ccccc21 | > 100 | > 100 | > 100 |  | 92.4 |  | 
